Among the data in BindingDB's records for doi:10.1021/jm070556y (St. Jude Research Hospital, 2007) are IC50 values, retold here.

Each structure is given as a SMILES string. Some results are limits rather than exact numbers.

The target in test [1] is T1, Thyroid hormone receptor beta [209-461] (Homo sapiens, UniProt P10828).
T1 construct: 209-461
T1 sequence (P10828 whole entry): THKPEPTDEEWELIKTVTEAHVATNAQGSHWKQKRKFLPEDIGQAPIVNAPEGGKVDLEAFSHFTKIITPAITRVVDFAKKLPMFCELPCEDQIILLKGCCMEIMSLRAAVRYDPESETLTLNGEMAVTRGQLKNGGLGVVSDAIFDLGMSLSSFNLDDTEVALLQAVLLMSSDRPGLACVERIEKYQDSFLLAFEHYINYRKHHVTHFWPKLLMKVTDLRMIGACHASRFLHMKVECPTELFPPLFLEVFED
Description: Fluorescence Polarization (FP) Competition Assay. On the procedure: (§1) IC50 is the concentration of each compound required to inhibit 50% of the binding between the TR LBD and the SRC2-2 peptide using fluorescence polarization (FP) assay. The competition binding experiments were evaluated using PrismPad, and the IC50 values were obtained by fitting the data to an equation, Sigmoidal dose-response (variable slope) or four parameter logistic equation.

For test [2], the target named is T2, Thyroid hormone receptor alpha [148-410] (Homo sapiens, UniProt P10827).
T2 construct: 148-410
T2 sequence (P10827 whole entry): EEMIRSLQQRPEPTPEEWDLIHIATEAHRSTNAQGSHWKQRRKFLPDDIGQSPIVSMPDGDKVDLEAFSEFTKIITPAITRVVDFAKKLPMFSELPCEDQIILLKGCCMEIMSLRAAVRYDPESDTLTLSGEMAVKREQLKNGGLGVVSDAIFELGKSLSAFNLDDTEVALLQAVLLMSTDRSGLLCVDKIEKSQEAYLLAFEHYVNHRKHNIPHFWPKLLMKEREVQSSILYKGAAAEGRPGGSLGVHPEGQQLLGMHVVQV
Description: Fluorescence Polarization (FP) Competition Assay. As for the experimental part: as §1

Regarding `C=CC(=O)Oc1ccc2c(c1)CCCC2` [5,6,7,8-tetrahydronaphthalen-2-yl prop-2-enoate], the IC50 (commonly the concentration that inhibits the measured activity by half) in test [1] amounted to 69.8 µM; in test [2], 85.3 µM.
Turning to `C=CC(=O)Oc1ccc(C(C)(C)CC)cc1` [4-(2-methylbutan-2-yl)phenyl prop-2-enoate], the IC50 was 43.5 µM in test [1] and 69.6 µM in test [2] (pH 7.2, 22 °C).
For `C=CC(=O)Oc1ccc(CCCCC)cc1` [4-pentylphenyl prop-2-enoate], in that order: 33.9 µM and 60.9 µM.
In the case of `CCCCCCc1ccc(C(=O)/C=C/C(=O)O)cc1` [(2E)-4-(4-hexylphenyl)-4-oxobut-2-enoic acid], the IC50 in test [1] was 17.7 µM; in test [2] (pH 7.2, 22 °C) it was 19.2 µM.
In the case of `C=CC(=O)Oc1ccc(NC(=O)CCC)cc1` [4-butanamidophenyl prop-2-enoate], the values for the half-maximal inhibitory concentration (IC50) in test [1] and in test [2] were 85.9 µM and over 100 µM, respectively.
`C=CC(=O)Oc1ccc(CCC)cc1` [4-propylphenyl prop-2-enoate] came in with an IC50 in test [1] of 100 µM.
Turning to `C=CC(=O)Oc1ccccc1C(=O)OCCCCCC` [hexyl 2-(prop-2-enoyloxy)benzoate], the results for the 50% inhibitory concentration (IC50) in test [1] and in test [2] were 8.2 µM and 39.1 µM, respectively.
In the case of `C=CC(=O)Oc1ccc(CCCCCC)cc1` [4-hexylphenyl prop-2-enoate], the IC50 in test [1] came out at 18.6 µM; in test [2], 45.2 µM.
As to `C=CC(=O)Oc1ccc(C(=O)OCCC)cc1` [propyl 4-(prop-2-enoyloxy)benzoate], the IC50 is 61 µM in test [1] and over 100 µM in test [2].
As to `C=CC(=O)Oc1ccc(C(=O)OCCCCC)cc1` [pentyl 4-(prop-2-enoyloxy)benzoate], the IC50 is 55.8 µM in test [1] and over 100 µM in test [2].
As for `CCCCCCc1ccc(C(=O)CCN2CCCC2)cc1` [1-(4-hexylphenyl)-3-(pyrrolidin-1-yl)propan-1-one], the IC50 stood at 2.7 µM in test [1] and 4.3 µM in test [2] (pH 7.2, 22 °C).
Regarding `C=CC(=O)Oc1ccc(CCCC)cc1` [4-butylphenyl prop-2-enoate], the IC50 amounted to 66 µM in test [1] and 71 µM in test [2] (pH 7.2, 22 °C).
With `C=CC(=O)Oc1ccc(CCCCCCCC)cc1` [4-octylphenyl prop-2-enoate], the figures for the IC50 in test [1] and in test [2] were 11.4 µM and 21.4 µM, respectively.
For `C=CC(=O)OC1CCC(C(C)(C)CC)CC1` (centres undefined) [4-(2-methylbutan-2-yl)cyclohexyl prop-2-enoate], in that order: 69.1 µM and 75.6 µM.
Regarding `C=CC(=O)Oc1ccc(CCCCCCC)cc1` [4-heptylphenyl prop-2-enoate], the IC50 in test [1] worked out at 10.5 µM; in test [2] it was 23 µM.
